Legend:
[1] = molecular target: T1, Lymphokine-activated killer T-cell-originated protein kinase (Homo sapiens) (UniProt Q96KB5); test: Residual activity of PBK at 0.1 uM by microplate scintillation counting
T1 sequence (whole entry): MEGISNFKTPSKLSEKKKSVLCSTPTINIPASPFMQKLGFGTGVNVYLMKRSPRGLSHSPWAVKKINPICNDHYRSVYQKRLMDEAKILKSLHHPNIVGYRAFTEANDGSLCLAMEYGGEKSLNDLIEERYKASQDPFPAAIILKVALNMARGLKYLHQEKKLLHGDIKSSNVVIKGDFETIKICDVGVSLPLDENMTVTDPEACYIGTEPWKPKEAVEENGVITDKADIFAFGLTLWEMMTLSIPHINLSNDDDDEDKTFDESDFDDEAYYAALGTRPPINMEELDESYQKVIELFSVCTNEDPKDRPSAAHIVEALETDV

[2] = molecular target: CDK6/cyclin D1 (Homo sapiens) (UniProt P24385+Q00534); test: Residual activity of CDK6/Cyclin D1 at 0.1 uM by microplate scintillation counting; type: protein-complex assay
[3] = molecular target: Protein kinase C beta type (Homo sapiens) (UniProt P05771); test: Residual activity of PKCbeta2 at 0.1 uM by microplate scintillation counting
Protein kinase C beta type (Homo sapiens), sequence (P05771 2-671 limits assumed): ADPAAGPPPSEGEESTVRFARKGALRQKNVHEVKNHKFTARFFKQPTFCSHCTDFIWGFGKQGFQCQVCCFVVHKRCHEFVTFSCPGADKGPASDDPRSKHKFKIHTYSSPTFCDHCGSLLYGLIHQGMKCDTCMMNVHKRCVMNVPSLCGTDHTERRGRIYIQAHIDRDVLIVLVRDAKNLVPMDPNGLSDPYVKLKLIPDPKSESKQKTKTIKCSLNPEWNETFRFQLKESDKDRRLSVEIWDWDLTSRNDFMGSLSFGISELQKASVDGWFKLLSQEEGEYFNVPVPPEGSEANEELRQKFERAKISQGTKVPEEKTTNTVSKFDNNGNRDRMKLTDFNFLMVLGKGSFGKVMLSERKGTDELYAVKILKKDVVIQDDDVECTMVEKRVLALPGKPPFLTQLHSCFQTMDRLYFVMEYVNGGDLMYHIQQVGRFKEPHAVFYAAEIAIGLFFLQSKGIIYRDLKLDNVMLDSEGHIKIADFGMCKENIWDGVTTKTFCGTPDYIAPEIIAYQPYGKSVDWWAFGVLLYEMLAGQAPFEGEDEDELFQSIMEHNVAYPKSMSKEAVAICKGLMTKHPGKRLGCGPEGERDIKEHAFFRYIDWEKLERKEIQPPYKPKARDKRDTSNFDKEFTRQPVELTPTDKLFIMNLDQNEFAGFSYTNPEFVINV

[4] = molecular target: Serine/threonine-protein kinase pim-1 (Homo sapiens) (UniProt P11309); test: Residual activity of PIM1 at 1 uM by microplate scintillation counting
Serine/threonine-protein kinase pim-1 (Homo sapiens), sequence (P11309 whole entry, looked up): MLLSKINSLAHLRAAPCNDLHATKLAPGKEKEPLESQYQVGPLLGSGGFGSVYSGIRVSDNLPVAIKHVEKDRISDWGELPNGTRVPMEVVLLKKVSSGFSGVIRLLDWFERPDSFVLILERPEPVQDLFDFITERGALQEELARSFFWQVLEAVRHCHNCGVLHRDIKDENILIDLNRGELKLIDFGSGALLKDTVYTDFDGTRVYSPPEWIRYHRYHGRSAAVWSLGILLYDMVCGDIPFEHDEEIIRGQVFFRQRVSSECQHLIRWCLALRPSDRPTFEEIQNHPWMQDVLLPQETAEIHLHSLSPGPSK

[5] = molecular target: T2, Serine/threonine-protein kinase D3 (Homo sapiens) (UniProt O94806); test: Residual activity of PKCnu at 10 uM by microplate scintillation counting
T2 sequence (whole entry): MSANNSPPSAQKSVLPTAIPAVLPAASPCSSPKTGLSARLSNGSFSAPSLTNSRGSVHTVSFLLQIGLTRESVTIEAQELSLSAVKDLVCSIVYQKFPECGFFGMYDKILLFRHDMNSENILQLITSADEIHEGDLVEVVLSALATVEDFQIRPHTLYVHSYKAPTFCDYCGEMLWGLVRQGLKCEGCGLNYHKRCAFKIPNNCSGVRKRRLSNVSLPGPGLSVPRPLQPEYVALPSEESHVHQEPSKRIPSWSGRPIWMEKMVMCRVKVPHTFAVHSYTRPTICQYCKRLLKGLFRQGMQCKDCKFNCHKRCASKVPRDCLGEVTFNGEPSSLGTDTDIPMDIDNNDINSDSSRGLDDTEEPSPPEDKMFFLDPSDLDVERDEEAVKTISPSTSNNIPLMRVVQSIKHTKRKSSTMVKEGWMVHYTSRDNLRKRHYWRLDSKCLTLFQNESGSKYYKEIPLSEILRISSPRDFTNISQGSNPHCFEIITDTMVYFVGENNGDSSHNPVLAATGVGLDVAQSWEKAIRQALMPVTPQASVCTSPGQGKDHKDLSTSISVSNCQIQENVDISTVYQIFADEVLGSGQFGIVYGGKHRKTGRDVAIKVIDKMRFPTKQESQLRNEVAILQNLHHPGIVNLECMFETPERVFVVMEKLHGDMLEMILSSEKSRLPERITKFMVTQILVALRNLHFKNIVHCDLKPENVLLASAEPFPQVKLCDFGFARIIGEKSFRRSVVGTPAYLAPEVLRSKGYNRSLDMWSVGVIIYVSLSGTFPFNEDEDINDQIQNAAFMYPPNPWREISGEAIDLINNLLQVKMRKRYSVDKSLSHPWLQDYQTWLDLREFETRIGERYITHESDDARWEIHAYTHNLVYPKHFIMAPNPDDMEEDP

[6] = molecular target: T1, Lymphokine-activated killer T-cell-originated protein kinase (Homo sapiens); test: Residual activity of PBK at 10 uM by microplate scintillation counting
[7] = molecular target: 5'-AMP-activated protein kinase catalytic subunit alpha-1 (Homo sapiens) (UniProt Q13131); test: Residual activity of AMPK-alpha1 fl at 0.1 uM by microplate scintillation counting
5'-AMP-activated protein kinase catalytic subunit alpha-1 (Homo sapiens), sequence (Q13131 whole entry, looked up, canonical isoform): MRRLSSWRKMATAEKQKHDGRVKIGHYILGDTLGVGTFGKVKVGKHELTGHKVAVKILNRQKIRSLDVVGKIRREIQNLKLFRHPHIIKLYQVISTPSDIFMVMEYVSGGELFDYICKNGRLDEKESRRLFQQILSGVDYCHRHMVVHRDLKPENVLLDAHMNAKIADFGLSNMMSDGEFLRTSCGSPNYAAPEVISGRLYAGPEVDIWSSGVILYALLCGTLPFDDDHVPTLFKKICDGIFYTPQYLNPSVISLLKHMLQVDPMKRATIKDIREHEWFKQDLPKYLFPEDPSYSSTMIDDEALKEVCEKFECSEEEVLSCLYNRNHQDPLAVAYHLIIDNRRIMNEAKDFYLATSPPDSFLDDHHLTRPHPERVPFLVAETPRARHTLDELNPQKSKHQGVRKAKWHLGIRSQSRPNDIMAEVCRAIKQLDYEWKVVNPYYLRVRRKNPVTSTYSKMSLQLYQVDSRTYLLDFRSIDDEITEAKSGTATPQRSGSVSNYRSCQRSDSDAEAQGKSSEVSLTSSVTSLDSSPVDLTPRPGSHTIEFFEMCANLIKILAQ

[8] = molecular target: T3, Phosphorylase b kinase gamma catalytic chain, liver/testis isoform (Homo sapiens) (UniProt P15735); test: Residual activity of PHKG2 at 1 uM by microplate scintillation counting
T3 sequence (whole entry): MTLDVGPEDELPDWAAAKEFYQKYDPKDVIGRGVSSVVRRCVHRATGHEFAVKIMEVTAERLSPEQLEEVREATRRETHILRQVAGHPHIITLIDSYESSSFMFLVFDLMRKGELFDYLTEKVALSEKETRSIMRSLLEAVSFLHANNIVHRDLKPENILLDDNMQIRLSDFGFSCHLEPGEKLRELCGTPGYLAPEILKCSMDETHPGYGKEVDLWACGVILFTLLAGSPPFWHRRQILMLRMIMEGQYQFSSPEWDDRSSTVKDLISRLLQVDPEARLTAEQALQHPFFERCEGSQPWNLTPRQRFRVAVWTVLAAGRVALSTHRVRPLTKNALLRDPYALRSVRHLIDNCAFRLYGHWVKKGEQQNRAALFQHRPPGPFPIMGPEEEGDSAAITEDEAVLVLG

[9] = molecular target: T4, Muscle, skeletal receptor tyrosine-protein kinase (Homo sapiens) (UniProt O15146); test: Residual activity of MUSK at 0.1 uM by microplate scintillation counting
T4 sequence (whole entry): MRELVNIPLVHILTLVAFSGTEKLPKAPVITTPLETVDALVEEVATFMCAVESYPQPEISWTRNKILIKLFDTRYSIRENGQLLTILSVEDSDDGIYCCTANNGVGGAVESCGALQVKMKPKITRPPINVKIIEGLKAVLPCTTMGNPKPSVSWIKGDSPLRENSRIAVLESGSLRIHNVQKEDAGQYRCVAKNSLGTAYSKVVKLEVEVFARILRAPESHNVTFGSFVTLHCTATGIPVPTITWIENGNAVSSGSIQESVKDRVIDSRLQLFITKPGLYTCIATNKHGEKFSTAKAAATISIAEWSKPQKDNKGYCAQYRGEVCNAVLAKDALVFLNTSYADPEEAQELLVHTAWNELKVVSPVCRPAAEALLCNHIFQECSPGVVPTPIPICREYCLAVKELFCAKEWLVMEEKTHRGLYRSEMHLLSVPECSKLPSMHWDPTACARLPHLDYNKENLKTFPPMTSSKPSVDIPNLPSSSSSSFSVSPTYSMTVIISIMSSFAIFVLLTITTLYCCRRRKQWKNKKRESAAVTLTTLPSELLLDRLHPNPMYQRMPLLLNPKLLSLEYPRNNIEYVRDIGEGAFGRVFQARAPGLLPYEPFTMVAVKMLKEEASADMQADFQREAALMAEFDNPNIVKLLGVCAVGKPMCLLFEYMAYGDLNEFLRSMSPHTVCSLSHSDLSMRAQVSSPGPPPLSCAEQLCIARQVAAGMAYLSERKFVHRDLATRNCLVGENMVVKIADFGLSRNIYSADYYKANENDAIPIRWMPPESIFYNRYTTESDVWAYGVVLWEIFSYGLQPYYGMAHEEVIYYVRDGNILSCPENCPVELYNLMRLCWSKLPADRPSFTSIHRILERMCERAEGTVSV

[10] = molecular target: Tyrosine-protein kinase JAK2 (Homo sapiens) (UniProt O60674); test: Residual activity of JAK2 at 1 uM by microplate scintillation counting
Tyrosine-protein kinase JAK2 (Homo sapiens), sequence (O60674 whole entry): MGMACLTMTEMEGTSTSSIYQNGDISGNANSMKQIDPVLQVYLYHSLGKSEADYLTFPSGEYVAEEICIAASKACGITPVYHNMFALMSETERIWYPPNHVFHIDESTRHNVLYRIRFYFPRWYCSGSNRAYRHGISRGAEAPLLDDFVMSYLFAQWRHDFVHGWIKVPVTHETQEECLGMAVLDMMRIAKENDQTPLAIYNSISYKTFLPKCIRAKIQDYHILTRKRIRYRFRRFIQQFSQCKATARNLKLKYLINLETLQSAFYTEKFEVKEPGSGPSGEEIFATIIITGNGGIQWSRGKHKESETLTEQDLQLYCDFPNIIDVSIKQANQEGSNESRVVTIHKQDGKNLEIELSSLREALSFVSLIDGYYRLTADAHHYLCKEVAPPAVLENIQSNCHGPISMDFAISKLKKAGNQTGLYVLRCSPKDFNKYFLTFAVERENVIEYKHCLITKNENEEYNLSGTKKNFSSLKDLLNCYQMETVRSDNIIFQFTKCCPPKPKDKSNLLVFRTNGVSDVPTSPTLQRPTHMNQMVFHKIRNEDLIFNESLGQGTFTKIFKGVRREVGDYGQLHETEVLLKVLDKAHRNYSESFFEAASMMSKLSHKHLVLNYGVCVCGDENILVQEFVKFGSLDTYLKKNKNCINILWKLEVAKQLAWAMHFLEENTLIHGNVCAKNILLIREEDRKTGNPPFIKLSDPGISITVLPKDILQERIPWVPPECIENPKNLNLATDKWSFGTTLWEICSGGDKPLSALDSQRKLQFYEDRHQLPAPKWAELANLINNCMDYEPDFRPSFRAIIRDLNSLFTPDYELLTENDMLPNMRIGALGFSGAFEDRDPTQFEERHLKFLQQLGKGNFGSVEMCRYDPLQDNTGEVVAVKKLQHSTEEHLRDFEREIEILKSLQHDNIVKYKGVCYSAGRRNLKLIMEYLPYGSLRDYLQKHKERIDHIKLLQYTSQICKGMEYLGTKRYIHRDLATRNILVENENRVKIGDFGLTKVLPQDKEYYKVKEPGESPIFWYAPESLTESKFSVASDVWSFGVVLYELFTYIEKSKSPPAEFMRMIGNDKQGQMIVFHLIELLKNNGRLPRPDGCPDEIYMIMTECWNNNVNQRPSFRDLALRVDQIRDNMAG

residual activity [2] [%]	residual activity [3] [%]	residual activity [4] [%]	residual activity [5] [%]	residual activity [7] [%]	residual activity [8] [%]	residual activity [9] [%]	residual activity [10] [%]	Compound	residual activity [1] [%]	residual activity [6] [%]
91	99	104	82	101	80	97	95	COc1cc2c(Oc3ccc(-c4nc5ccccc5s4)cc3)ncnc2cc1OCCCN1CCCC1	110	85
107	87	102	50	86	72	96	97	COc1cc2c(Oc3ccc(-c4nc5ccccc5s4)cc3F)ncnc2cc1OCCCN1CCN(C)CC1	91	65
99	101	109	52	94	96	95	96	COc1cc2c(Oc3ccc(-c4nc5ccccc5s4)cc3)ncnc2cc1OCCCN1CCN(C)CC1	96	102

— ChEMBL document CHEMBL1152560, “Substituted 2-arylbenzothiazoles as kinase inhibitors: hit-to-lead optimization” (Bioorg Med Chem, 2009)
